Assay results: US12528812B2 (Genentech, Inc., priority 2020, dated 2026)

Columns and labels:
[1] = biological target: T1, recombinant human JAK1 kinase domain protein (Residues 854-1154) (Homo sapiens, UniProt P23458); assay: JAK1 biochemical assay (LabChip mobility shift, Ki); conditions: read-out: Biochem JAK1 Ki
T1 construct: human JAK1 kinase domain protein (Residues 854-1154); purchased Proteros Biostructures GmbH (Martinsried, Germany); host or cells: insect cells

[2] = tested on: IL-13-stimulated STAT6 phosphorylation in human lung bronchial epithelial BEAS-2B cell line; assay: P-STAT6 BEAS-2B + IL-13 cell assay; format: cell-based; conditions: Homo sapiens, BEAS-2B, BEAS2B cells, IL13 stimulation; read-out: Cellular JAK1 PSTAT6 BEAS2B + IL13
Summary of the method: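 BEAS-2B cells grown 48 h at 37 °C, pre-treated 1 h with compound (10-point 1:2 dilution curve), then stimulated 15 min with human recombinant IL-13 (250 ng/mL stock). Lysate P-STAT6 (Tyr641) read by MSD sandwich ELISA with total-STAT6 capture; IC50 from four-parameter logistic fit of control-normalised data.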

[3] = biological target: Recombinant human JAK2 kinase domain protein (Residues 812-1132) (Homo sapiens, UniProt O60674); assay: JAK2 biochemical assay (LabChip mobility shift, Ki); conditions: Biochem JAK2 Ki
Recombinant human JAK2 kinase domain protein (Residues 812-1132), sequence (O60674 812-1132): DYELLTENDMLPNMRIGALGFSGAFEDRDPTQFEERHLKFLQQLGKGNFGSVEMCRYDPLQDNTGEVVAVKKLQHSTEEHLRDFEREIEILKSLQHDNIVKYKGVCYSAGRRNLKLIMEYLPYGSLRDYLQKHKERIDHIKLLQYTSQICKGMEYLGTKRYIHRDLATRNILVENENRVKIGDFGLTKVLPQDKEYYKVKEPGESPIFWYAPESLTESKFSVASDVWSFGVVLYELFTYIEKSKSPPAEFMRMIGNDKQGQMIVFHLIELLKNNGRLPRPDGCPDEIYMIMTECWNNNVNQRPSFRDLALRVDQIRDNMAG

T1 sequence (P23458 854-1154): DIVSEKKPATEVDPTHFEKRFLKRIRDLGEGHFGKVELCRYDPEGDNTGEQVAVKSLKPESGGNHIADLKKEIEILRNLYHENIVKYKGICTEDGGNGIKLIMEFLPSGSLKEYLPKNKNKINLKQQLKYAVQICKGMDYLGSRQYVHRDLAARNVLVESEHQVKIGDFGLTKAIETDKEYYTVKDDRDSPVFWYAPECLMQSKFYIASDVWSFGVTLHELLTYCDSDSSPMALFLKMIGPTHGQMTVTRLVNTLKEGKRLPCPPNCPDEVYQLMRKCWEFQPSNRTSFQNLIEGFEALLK

Row | SMILES | Ki [1] [nM] | Ki [3] [nM] | IC50 [2] [nM]
1 | CN(Cc1cccc(Oc2ccc(OC(F)F)c(-c3nn(C)cc3NC(=O)c3cnn4cccnc34)c2)c1)CC(C)(C)C#N [Example 21, N-[3-[5-[3-[[(2-cyano-2-methyl-propyl)-methyl-amino]methyl]phenoxy]-2-(difluoromethoxy)phenyl]-1-methyl-pyrazol-4-yl]pyrazolo[1,5-a]pyrimidine-3-carboxamide] | 1.8 | 1.3 | 110
2 | NCc1cccc(Oc2ccc(OC(F)F)c(-c3n[nH]cc3NC(=O)c3cnn4cccnc34)c2)c1F [Example 24, N-[3-[5-[3-(aminomethyl)-2-fluoro-phenoxy]-2-(difluoromethoxy)phenyl]-1H-pyrazol-4-yl]pyrazolo[1,5-a]pyrimidine-3-carboxamide] | 0.64 | 0.56 | 22
3 | Cc1ccc(Oc2ccc(OC(F)F)c(-c3n[nH]cc3NC(=O)c3cnn4cccnc34)c2)cc1 [Example 25, N-[3-[2-(difluoromethoxy)-5-(4-methylphenoxy)phenyl]-1H-pyrazol-4-yl]pyrazolo[1,5-a]pyrimidine-3-carboxamide] | 0.39 | 0.14 | 11
4 | CNCCn1cc(NC(=O)c2cnn3cccnc23)c(-c2cc(Oc3ccccc3)ccc2OC(F)F)n1 [Example 26, N-[3-[2-(difluoromethoxy)-5-phenoxy-phenyl]-1-[2 (methylamino)ethyl]pyrazol-4-yl]pyrazolo[1,5-a]pyrimidine-3-carboxamide] | 0.25 | 0.41 | 12
5 | COCCNCc1cccc(Oc2ccc(OC(F)F)c(-c3nn(C)cc3NC(=O)c3cnn4cccnc34)c2)c1 [Example 27, N-[3-[2-(difluoromethoxy)-5-[3-[(2-methoxyethylamino)methyl]phenoxy]phenyl]-1-methyl-pyrazol-4-yl]pyrazolo[1,5-a]pyrimidine-3-carboxamide] | 0.73 | 0.55 | 20
6 | Cn1cc(NC(=O)c2cnn3cccnc23)c(-c2cc(Oc3cc(CN)ccc3F)ccc2OC(F)F)n1 [Example 28, N-[3-[5-[5-(aminomethyl)-2-fluoro-phenoxy]-2-(difluoromethoxy)phenyl]-1-methyl-pyrazol-4-yl]pyrazolo[1,5-a]pyrimidine-3-carboxamide] | 0.19 | 0.21 | 19
7 | CN1CCc2ccc(Oc3ccc(OC(F)F)c(-c4n[nH]cc4NC(=O)c4cnn5cccnc45)c3)cc2C1 [Example 36, N-[3-[2-(difluoromethoxy)-5-[(2-methyl-3,4-dihydro-1H-isoquinolin-7-yl)oxy]phenyl]-1H-pyrazol-4-yl]pyrazolo[1,5-a]pyrimidine-3-carboxamide] | 0.51 | 0.25 | 11
8 | Cn1cc(NC(=O)c2cnn3cccnc23)c(-c2cc(Oc3cccc(CN)n3)ccc2OC(F)F)n1 [Example 39, N-[3-[5-[[6-(aminomethyl)-2-pyridyl]oxy]-2-(difluoromethoxy)phenyl]-1-methyl-pyrazol-4-yl]pyrazolo[1,5-a]pyrimidine-3-carboxamide] | 1.5 | 1.3 | 35
9 | Cn1cc(NC(=O)c2cnn3cccnc23)c(-c2cc(Oc3ccnc(CN)c3)ccc2OC(F)F)n1 [Example 40, N-[3-[5-[[2-(aminomethyl)-4-pyridyl]oxy]-2-(difluoromethoxy)phenyl]-1-methyl-pyrazol-4-yl]pyrazolo[1,5-a]pyrimidine-3-carboxamide] | 0.97 | 0.77 | 51
10 | O=C(Nc1cn(CCN[C@H]2C[C@H](O)C2)nc1-c1cc(Oc2ccccc2)ccc1OC(F)F)c1cnn2cccnc12 [Example 43, N-[3-[2-(difluoromethoxy)-5-phenoxy-phenyl]-1-[2-[(3-hydroxycyclobutyl)amino]ethyl]pyrazol-4-yl]pyrazolo[1,5-a]pyrimidine-3-carboxamide] | 0.3 | 0.31 | 24
11 | CC(=O)c1cc(Oc2ccc(OC(F)F)c(-c3n[nH]cc3NC(=O)c3cnn4cccnc34)c2)ccc1C [Example 44, N-[3-[5-(3-acetyl-4-methyl-phenoxy)-2-(difluoromethoxy)phenyl]-1H-pyrazol-4-yl]pyrazolo[1,5-a]pyrimidine-3-carboxamide] | 0.45 | 0.24 | 5.7
12 | Cn1cc(NC(=O)c2cnn3cccnc23)c(-c2cc(Oc3cccc(CN(CCO)CCO)c3)ccc2OC(F)F)n1 [Example 45, N-[3-[5-[3-[[bis(2-hydroxyethyl)amino]methyl]phenoxy]-2-(difluoromethoxy)phenyl]-1-methyl-pyrazol-4-yl]pyrazolo[1,5-a]pyrimidine-3-carboxamide] | 0.58 | 0.5 | 34
13 | Cn1cc(NC(=O)c2cnn3cccnc23)c(-c2cc(Oc3cccc(CNCCN4CCOCC4)c3)ccc2OC(F)F)n1 [Example 47, N-[3-[2-(difluoromethoxy)-5-[3-[(2-morpholinoethylamino)methyl]phenoxy]phenyl]-1-methyl-pyrazol-4-yl]pyrazolo[1,5-a]pyrimidine-3-carboxamide] | 2 | 1.6 | 24
14 | Cc1ccc(Oc2ccc(OC(F)F)c(-c3nn(C)cc3NC(=O)c3cnn4cccnc34)c2)cc1C(=O)N1CCN(C)CC1 [Example 50, N-[3-[2-(difluoromethoxy)-5-[4-methyl-3-(4-methylpiperazine-1-carbonyl)phenoxy]phenyl]-1-methyl-pyrazol-4-yl]pyrazolo[1,5-a]pyrimidine-3-carboxamide] | 0.64 | 0.46 | 35
15 | NCc1cc(Oc2ccc(OC(F)F)c(-c3n[nH]cc3NC(=O)c3cnn4cccnc34)c2)ccc1C(F)(F)F [Example 52, N-[3-[5-[3-(aminomethyl)-4-(trifluoromethyl)phenoxy]-2-(difluoromethoxy)phenyl]-1H-pyrazol-4-yl]pyrazolo[1,5-a]pyrimidine-3-carboxamide] | 3 | 2.3 | 91
16 | Cc1ccc(Oc2ccc(OC(F)F)c(-c3nn(C)cc3NC(=O)c3cnn4cccnc34)c2)cc1C(=O)N1CCNCC1 [Example 54, N-[3-[2-(difluoromethoxy)-5-[4-methyl-3-(piperazine-1-carbonyl)phenoxy]phenyl]-1-methyl-pyrazol-4-yl]pyrazolo[1,5-a]pyrimidine-3-carboxamide] | 0.43 | 0.42 | 58
17 | O=C(Nc1cn(C2COC2)nc1-c1cc(Oc2ccccc2)ccc1OC(F)F)c1cnn2cccnc12 [Example 56, N-[3-[2-(difluoromethoxy)-5-phenoxy-phenyl]-1-(oxetan-3-yl)pyrazol-4-yl]pyrazolo[1,5-a]pyrimidine-3-carboxamide] | 0.35 | 0.25 | 15

More lines, main results first:

Row | Ki [1] [nM] | Ki [3] [nM] | SMILES | IC50 [2] [nM]
18 | 0.34 | 0.31 | CN(CCO)Cc1cccc(Oc2ccc(OC(F)F)c(-c3nn(C)cc3NC(=O)c3cnn4cccnc34)c2)c1 [Example 22] | 22
19 | 0.37 | 0.35 | Cn1cc(NC(=O)c2cnn3cccnc23)c(-c2cc(Oc3cccc(CNCCO)c3)ccc2OC(F)F)n1 [Example 23, N-[3-[2-(difluoromethoxy)-5-[3-[(2-hydroxyethylamino)methyl]phenoxy]phenyl]-1-methyl-pyrazol-4-yl]pyrazolo[1,5-a]pyrimidine-3-carboxamide] | 24
20 | 1.2 | 0.72 | Cn1cc(NC(=O)c2cnn3cccnc23)c(-c2cc(Oc3cccc(CNC4COC4)c3)ccc2OC(F)F)n1 [Example 29, N-[3-[2-(difluoromethoxy)-5-[3-[(oxetan-3-ylamino)methyl]phenoxy]phenyl]-1-methyl-pyrazol-4-yl]pyrazolo[1,5-a]pyrimidine-3-carboxamide] | 62
21 | 0.93 | 0.56 | CN1CCOC(c2cccc(Oc3ccc(OC(F)F)c(-c4nn(C)cc4NC(=O)c4cnn5cccnc45)c3)c2)C1 (stereo not drawn) [Example 30, N-[3-[2-(difluoromethoxy)-5-[3-(4-methylmorpholin-2-yl)phenoxy]phenyl]-1-methyl-pyrazol-4-yl]pyrazolo[1,5-a]pyrimidine-3-carboxamide] | 40
22 | 1.5 | 1.6 | Cn1cc(NC(=O)c2cnn3cccnc23)c(-c2cc(Oc3cccc(CN4CCOCC4)c3)ccc2OC(F)F)n1 [Example 46, N-[3-[2-(difluoromethoxy)-5-[3-(morpholinomethyl)phenoxy]phenyl]-1-methyl-pyrazol-4-yl]pyrazolo[1,5-a]pyrimidine-3-carboxamide] | 67
23 | 0.76 | 0.64 | Cn1cc(NC(=O)c2cnn3cccnc23)c(-c2cc(Oc3cccc(CNC(CO)CO)c3)ccc2OC(F)F)n1 [Example 48, N-[3-[2-(difluoromethoxy)-5-[3-[[[2-hydroxy-1-(hydroxymethyl)ethyl]amino]methyl]phenoxy]phenyl]-1-methyl-pyrazol-4-yl]pyrazolo[1,5-a]pyrimidine-3-carboxamide] | 86
24 | 0.32 | 0.27 | Cn1cc(NC(=O)c2cnn3cccnc23)c(-c2cc(Oc3cccc(C4(O)CNC4)c3)ccc2OC(F)F)n1 [Example 53] | 210
25 | 0.9 | 0.58 | CN(C)C(=O)CNCc1cccc(Oc2ccc(OC(F)F)c(-c3nn(C)cc3NC(=O)c3cnn4cccnc34)c2)c1 [Example 55, N-[3-[2-(difluoromethoxy)-5-[3-[[[2-(dimethylamino)-2-oxo-ethyl]amino]methyl]phenoxy]phenyl]-1-methyl-pyrazol-4-yl]pyrazolo[1,5-a]pyrimidine-3-carboxamide] | 48
